#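 Exposure lasted 48 hours, with cells grown in 96-well plates and compounds tested at five concentrations. TGI marks complete inhibition of growth.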
# Assays:
# Assay in all cases: NCI anticancer screen, dose series, 48 h
# 786-0 renal = system: 786-0 renal
# SK-MEL-28 melanoma = system: SK-MEL-28 melanoma
# NCI-H522 lung = system: NCI-H522 lung
# OVCAR-3 ovarian = system: OVCAR-3 ovarian
# A498 renal = system: A498 renal
# M14 melanoma = system: M14 melanoma
# MOLT-4 leukemia = system: MOLT-4 leukemia
# DMS 273 small cell lung = system: DMS 273 small cell lung
# IGROV1 ovarian = system: IGROV1 ovarian
# RPMI-8226 leukemia = system: RPMI-8226 leukemia
# UO-31 renal = system: UO-31 renal
# NCI-H23 lung = system: NCI-H23 lung
# DLD-1 colon = system: DLD-1 colon
# UACC-257 melanoma = system: UACC-257 melanoma
# SNB-19 CNS = system: SNB-19 CNS
# SNB-75 CNS = system: SNB-75 CNS
# OVCAR-8 ovarian = system: OVCAR-8 ovarian
# HCC-2998 colon = system: HCC-2998 colon
# MALME-3M melanoma = system: MALME-3M melanoma
# HT29 colon = system: HT29 colon
# HCT-116 colon = system: HCT-116 colon
# SK-MEL-5 melanoma = system: SK-MEL-5 melanoma
# OVCAR-5 ovarian = system: OVCAR-5 ovarian
# DMS 114 small cell lung = system: DMS 114 small cell lung
# SF-539 CNS = system: SF-539 CNS
# TK-10 renal = system: TK-10 renal
# EKVX NSCLC = system: EKVX NSCLC
# HOP-92 NSCLC = system: HOP-92 NSCLC
# OVCAR-4 ovarian = system: OVCAR-4 ovarian
# ACHN renal = system: ACHN renal
# LOX IMVI melanoma = system: LOX IMVI melanoma
# SK-OV-3 ovarian = system: SK-OV-3 ovarian
# NCI-H460 lung = system: NCI-H460 lung
# LXFL 529 NSCLC = system: LXFL 529 NSCLC
# SN12C renal = system: SN12C renal
# SF-295 CNS = system: SF-295 CNS
# HOP-62 NSCLC = system: HOP-62 NSCLC
# SK-MEL-2 melanoma = system: SK-MEL-2 melanoma
# XF 498 CNS = system: XF 498 CNS
# KM12 colon = system: KM12 colon
# SF-268 CNS = system: SF-268 CNS
# RXF-631 renal = system: RXF-631 renal
# M19-MEL melanoma = system: M19-MEL melanoma
# UACC-62 melanoma = system: UACC-62 melanoma
# HCT-15 colon = system: HCT-15 colon
# CCRF-CEM leukemia = system: CCRF-CEM leukemia
# A549 NSCLC = system: A549 NSCLC
# U251 CNS = system: U251 CNS
# KM20L2 colon = system: KM20L2 colon
# COLO 205 colon = system: COLO 205 colon
# SNB-78 CNS = system: SNB-78 CNS
# SW-620 colon = system: SW-620 colon
# RXF 393 renal = system: RXF 393 renal
# NCI-H226 lung = system: NCI-H226 lung
# HL-60(TB) leukemia = system: HL-60(TB) leukemia
# K-562 leukemia = system: K-562 leukemia
compound,measurement,setting,value
Cc1ccc(-c2cc(=O)c3cc(C)c(C)c(C(=O)O)c3o2)cc1,TGI,786-0 renal,> 100 µM
same,TGI,SK-MEL-28 melanoma,> 100 µM
same,TGI,NCI-H522 lung,54.5 µM
same,TGI,OVCAR-3 ovarian,> 100 µM
same,TGI,A498 renal,> 100 µM
same,TGI,M14 melanoma,> 100 µM
same,TGI,MOLT-4 leukemia,> 100 µM
same,TGI,DMS 273 small cell lung,> 100 µM
same,TGI,IGROV1 ovarian,> 100 µM
same,TGI,RPMI-8226 leukemia,> 100 µM
same,TGI,UO-31 renal,> 100 µM
same,TGI,NCI-H23 lung,> 100 µM
same,TGI,DLD-1 colon,> 100 µM
same,TGI,UACC-257 melanoma,> 100 µM
same,TGI,SNB-19 CNS,> 100 µM
same,TGI,SNB-75 CNS,> 100 µM
same,TGI,OVCAR-8 ovarian,> 100 µM
same,TGI,HCC-2998 colon,> 100 µM
same,TGI,MALME-3M melanoma,> 100 µM
same,TGI,HT29 colon,> 100 µM
same,TGI,HCT-116 colon,> 100 µM
same,TGI,SK-MEL-5 melanoma,> 100 µM
same,TGI,OVCAR-5 ovarian,> 100 µM
same,TGI,DMS 114 small cell lung,> 100 µM
same,TGI,SF-539 CNS,75 µM
same,TGI,TK-10 renal,> 100 µM
same,TGI,EKVX NSCLC,> 100 µM
same,TGI,HOP-92 NSCLC,> 100 µM
same,TGI,OVCAR-4 ovarian,> 100 µM
same,TGI,ACHN renal,> 100 µM
same,TGI,LOX IMVI melanoma,> 100 µM
same,TGI,SK-OV-3 ovarian,> 100 µM
same,TGI,NCI-H460 lung,> 100 µM
same,TGI,LXFL 529 NSCLC,> 100 µM
same,TGI,SN12C renal,> 100 µM
same,TGI,SF-295 CNS,> 100 µM
same,TGI,HOP-62 NSCLC,> 100 µM
same,TGI,SK-MEL-2 melanoma,> 100 µM
same,TGI,XF 498 CNS,> 100 µM
same,TGI,KM12 colon,> 100 µM
same,TGI,SF-268 CNS,> 100 µM
same,TGI,RXF-631 renal,> 100 µM
same,TGI,M19-MEL melanoma,> 100 µM
same,TGI,UACC-62 melanoma,> 100 µM
same,TGI,HCT-15 colon,> 100 µM
same,TGI,CCRF-CEM leukemia,> 100 µM
same,TGI,A549 NSCLC,> 100 µM
same,TGI,U251 CNS,> 100 µM
same,TGI,KM20L2 colon,> 100 µM
same,TGI,COLO 205 colon,> 100 µM
same,TGI,SNB-78 CNS,> 100 µM
same,TGI,SW-620 colon,> 100 µM
C/C(CC(=O)Nc1ccc(Cl)cc1)=N\NC(=O)C[n+]1ccccc1,TGI,786-0 renal,> 100 µM
same,TGI,RXF 393 renal,> 100 µM
same,TGI,SK-MEL-28 melanoma,> 100 µM
same,TGI,NCI-H522 lung,> 100 µM
same,TGI,OVCAR-3 ovarian,> 100 µM
same,TGI,M14 melanoma,> 100 µM
same,TGI,MOLT-4 leukemia,> 100 µM
same,TGI,DMS 273 small cell lung,> 100 µM
same,TGI,IGROV1 ovarian,> 100 µM
same,TGI,RPMI-8226 leukemia,> 100 µM
same,TGI,UO-31 renal,> 100 µM
same,TGI,NCI-H23 lung,> 100 µM
same,TGI,DLD-1 colon,> 100 µM
same,TGI,UACC-257 melanoma,> 100 µM
same,TGI,SNB-75 CNS,> 100 µM
same,TGI,OVCAR-8 ovarian,> 100 µM
same,TGI,NCI-H226 lung,> 100 µM
same,TGI,HCC-2998 colon,> 100 µM
same,TGI,MALME-3M melanoma,> 100 µM
same,TGI,HT29 colon,> 100 µM
same,TGI,HCT-116 colon,> 100 µM
same,TGI,SK-MEL-5 melanoma,> 100 µM
same,TGI,OVCAR-5 ovarian,> 100 µM
same,TGI,DMS 114 small cell lung,> 100 µM
same,TGI,SF-539 CNS,> 100 µM
same,TGI,TK-10 renal,> 100 µM
same,TGI,HL-60(TB) leukemia,> 100 µM
same,TGI,EKVX NSCLC,> 100 µM
same,TGI,HOP-92 NSCLC,> 100 µM
same,TGI,ACHN renal,> 100 µM
same,TGI,LOX IMVI melanoma,> 100 µM
same,TGI,SK-OV-3 ovarian,> 100 µM
same,TGI,NCI-H460 lung,> 100 µM
same,TGI,LXFL 529 NSCLC,> 100 µM
same,TGI,SF-295 CNS,> 100 µM
same,TGI,HOP-62 NSCLC,> 100 µM
same,TGI,SK-MEL-2 melanoma,> 100 µM
same,TGI,XF 498 CNS,> 100 µM
same,TGI,KM12 colon,> 100 µM
same,TGI,SF-268 CNS,> 100 µM
same,TGI,RXF-631 renal,> 100 µM
same,TGI,UACC-62 melanoma,> 100 µM
same,TGI,CCRF-CEM leukemia,> 100 µM
same,TGI,A549 NSCLC,> 100 µM
same,TGI,U251 CNS,> 100 µM
same,TGI,KM20L2 colon,> 100 µM
same,TGI,COLO 205 colon,> 100 µM
same,TGI,K-562 leukemia,> 100 µM
same,TGI,SNB-78 CNS,> 100 µM
same,TGI,SW-620 colon,> 100 µM
